Twelve substances from patent US5879657A, “Radiolabeled platelet GPIIb/IIIa receptor antagonists as imaging agents for the diagnosis of thromboembolic disorders” (The Dupont Merck Pharmaceutical Company, priority 1994, dated 1999) can be followed below.

The subject of one test is thrombus. Kind of test: Arteriovenous Shunt Model. In kind it is in vivo, dogs. To be noted: mean ± SEM; for Arterial Conditions T/B ratio / Venous Conditions T/B ratio: T/B = thrombus/background; for Arterial Conditions Uptake (% id/g) / Venous Conditions Uptake (% id/g): extracorporeal A-V shunt, 1 hr shunt period. The method, then: Arteriovenous Shunt Model: Adult mongrel dogs of either sex (9-13 kg) were anesthetized with pentobarbital sodium (35 mg/kg, i.v.) and ventilated with room air via an endotracheal tube (12 strokes/min,25 ml/kg). For arterial pressure determination, the left carotid artery was cannulated with a saline-filled polyethylene catheter (PE-240) and connected to a Statham pressure transducer (P23ID; Oxnard, Calif.). Mean arterial blood pressure was determined via damping the pulsatile pressure signal. Heart rate was monitored using a cardiotachometer (Biotach, Grass Quincy, Ma.) triggered from a lead II electrocardiogram generated by limb leads. A jugular vein was cannulated (PE-240) for drug administration. The both femoral arteries and femoral veins were cannulated with silicon treated (Sigmacote, Sigma Chemical Co. St Louis, Mo.), saline filled polyethylene tubing (PE-200) and connected with a 5 cm section of silicon treated tubing (PE-240) to form an extracorporeal arterio-venous shunts (A-V). Shunt patency was monitored using a doppler flow system (model VF-1, Crystal Biotech Inc, Hopkinton, Ma.) and flow probe (2-2.3 mm, Titronics Med. Inst., Iowa City, Iowa) placed proximal to the locus of the shunt. All parameters were monitored continuously on a polygraph recorder (model 7D Grass) at a paper speed of […] or 25 mm/sec.
On completion of a 15 min post surgical stabilization period, an occlusive thrombus was formed by the introduction of a thrombogenic surface (4-0 braided silk thread, 5 cm in length, Ethicon Inc., Somerville, N.J.) into the shunt one shunt with the other serving as a control. Two consecutive 1 hr shunt periods were employed with the test agent administered as an infusion over 5 min beginning 5 min before insertion of the thrombogenic surface. At the end of each 1 hr shunt period the silk was carefully removed and weighed and the % incorporation determined via well counting. Thrombus weight was calculated by subtracting the weight of the silk prior to placement from the total weight of the silk on removal from the shunt. Arterial blood was withdrawn prior to the first shunt and every 30 min thereafter for determination of blood clearance, whole blood collagen-induced platelet aggregation, thrombin-induced platelet degranulation (platelet ATP release), prothrombin time and platelet count. Template bleeding time was also performed at 30 min intervals.

In a further test the test system is venous thrombus. Kind of test: Canine Deep Vein Thrombosis Model. In kind it is in vivo, dogs. Conditions: 1 mCi/Kg, i.v., given at reflow; jugular vein thrombi; 15, 60 and 120 min post-administration. The method, then: Canine Deep Vein Thrombosis Model: This model incorporates the triad of events (hypercoagulatible state, period of stasis, low shear environment) essential for the formation of a venous fibrin-rich actively growing thrombus. The procedure was as follows: Adult mongrel dogs of either sex (9-13 kg) were anesthetized with pentobarbital sodium (35 mg/kg,i.v.) and ventilated with room air via an endotracheal tube (12 strokes/min, 25 ml/kg). For arterial pressure determination, the right femoral artery was cannulated with a saline-filled polyethylene catheter (PE-240) and connected to a Statham pressure transducer (P23ID; Oxnard, Calif.). Mean arterial blood pressure was determined via damping the pulsatile pressure signal. Heart rate was monitored using a cardiotachometer (Biotach, Grass Quincy, Ma.) triggered from a lead II electrocardiogram generated by limb leads. The right femoral vein was cannulated (PE-240) for drug administration. A 5 cm segment of both jugular veins was isolated, freed from fascia and circumscribed with silk suture. A microthermister probe was placed on the vessel which serves as an indirect measure of venous flow. […] The agent was infused during the first 5 min of reflow and the rate of incorporation monitored using gamma scintigraphy.

As for “Cyclo-((^125 I)D-Tyr-NMeArg-Gly-Asp-Mamb) [Example 8]”, in the test on thrombus, the “Arterial Conditions T/B ratio” value was 173 ± 22, the “Arterial Conditions Uptake (% id/g)” value worked out at 1.81 ± 0.18 % id/g, the “Venous Conditions T/B ratio” value turned out to be 19 ± 9 and the “Venous Conditions Uptake (% id/g)” value is listed as 0.25 ± 0.15 % id/g.
Consider “Cyclo-(D-Val-NMeArg-Gly-Asp-Mamb([^99m TcO(MA-MAMA)]-5-Aca)) [Example 32]”, for which, in the test with thrombus, the “Arterial Conditions T/B ratio” value was found to be 102, the “Arterial Conditions Uptake (% id/g)” value is 7.4 % id/g, the “Venous Conditions T/B ratio” value was 0 and the “Venous Conditions Uptake (% id/g)” value is reported as 0 % id/g.
For “Cyclo-(D-Val-NMeArg-Gly-Asp-Mamb([^99m TcO(MeMAG2 gaba)]^- -5-Aca)) [Example 23]”, in that order: 195 ± 39, 5.41 ± 0.70 % id/g, 7 ± 0.4 and 0.21 ± 0.05 % id/g.
For “Cyclo-(D-Val-NMeArg-Gly-Asp-Mamb([^99m TcO(mapt)]^- -5-Aca)) [Example 19]”, the “uptake in venous thrombus (typical images, gamma scintigraphy)” value in the test with venous thrombus is “uptake in a rapidly growing venous thrombus”. For the same substance, in the test with thrombus, the “Arterial Conditions T/B ratio” value is 142 ± 24, the “Arterial Conditions Uptake (% id/g)” value came to 5.75 ± 1.28 % id/g, the “Venous Conditions T/B ratio” value is listed as 13 ± 4 and the “Venous Conditions Uptake (% id/g)” value turned out to be 0.58 ± 0.22 % id/g.
Turning to “Cyclo-([([^99m TcO(mapt)]^- -5-Aca)D-Lysσ-NMeArg-Gly-Asp-Mamb) [Example 21]”, in the test on thrombus, the “Arterial Conditions T/B ratio” value turned out to be 113 ± 1, the “Arterial Conditions Uptake (% id/g)” value turned out to be 1.6 ± 0.12 % id/g, the “Venous Conditions T/B ratio” value was 4.0 ± 2 and the “Venous Conditions Uptake (% id/g)” value is on record as 0.06 ± 0.03 % id/g.
For “Cyclo-([[^99m TcO(MeMAG2 gaba)]^- -D-Lys]-NMeArg-Gly-Asp-Mamb) [Example 22]”, in that order: 158 ± 5, 1.28 ± 0.44 % id/g, 7 ± 4 and 0.045 ± 0.02 % id/g.
The matching figures for “Cyclo-([[^99m TcO(mapt)]^- -D-Lys]-NMeArg-Gly-Asp-Mamb) [Example 18]”: 147 ± 44, 0.47 ± 0.12 % id/g, 13 ± 3 and 0.04 ± .01 % id/g.
For “Cyclo-([^111 In-DTPA-D-Lys]-NMeArg-Gly-Asp-Mamb) [Example 16]”, in that order: 128 ± 24, 0.95 ± 0.29 % id/g, 14 and 0.08 % id/g.
On to “[(^125 I)N-3-(4-hydroxyphenyl)propionyl]-Cyclo-(D-Lys-NMeArg-Gly-Asp-Mamb) [Example 9]”, for which, in the test with thrombus, the “Arterial Conditions T/B ratio” value is listed as 44 ± 4, the “Arterial Conditions Uptake (% id/g)” value was 2.60 ± .005 % id/g, the “Venous Conditions T/B ratio” value was 8 ± 3 and the “Venous Conditions Uptake (% id/g)” value worked out at 0.45 ± 0.11 % id/g.
Regarding “^99m Tc((EDDA)-Cyclo(D-Val-NMeArg-Gly-Asp-Mamb(hydrazino-nicotinyl-5-Aca)) [Example 13]”, in the test with thrombus, the “Arterial Conditions T/B ratio” value amounted to 163 ± 14, the “Arterial Conditions Uptake (% id/g)” value is reported as 8.50 ± 0.20 % id/g, the “Venous Conditions T/B ratio” value is on record as 33 ± 27 and the “Venous Conditions Uptake (% id/g)” value is listed as 1.64 ± 1.32 % id/g.
Turning to “^99m Tc(tricine)2 -Cyclo(D-Val-NMeArg-Gly-Asp-Mamb(hydrazino-nicotinyl-5-Aca)) [Example 12]”, the “uptake in venous thrombus (typical images, gamma scintigraphy)” value in the test with venous thrombus is recorded as “uptake in a rapidly growing venous thrombus”. Moreover, in the test with thrombus, the “Arterial Conditions T/B ratio” value worked out at 111 ± 6, the “Arterial Conditions Uptake (% id/g)” value was found to be 6.15 ± 0.66 % id/g, the “Venous Conditions T/B ratio” value stood at 7.0 ± 2 and the “Venous Conditions Uptake (% id/g)” value was 0.46 ± 0.19 % id/g.
Take “^99m TcO(MAMA)-Cyclo-(D-Val-NMeArg-Gly-Asp-Mamb(5-Aca)) [Example 10]”: in the test on thrombus, the “Arterial Conditions T/B ratio” value is reported as 221 ± 16, the “Arterial Conditions Uptake (% id/g)” value is 5.00 ± 0.51 % id/g, the “Venous Conditions T/B ratio” value worked out at 7 ± 0.6 and the “Venous Conditions Uptake (% id/g)” value came out at 0.16 ± 0.02 % id/g.
